System: Rheb^CA neurons
Assay: Whole cell patch clamp recording in acute slices, Rheb^CA (FCM) neurons
Assay type: cell-based, mice
Protocol: Each DNA plasmid was diluted in sterile PBS (pH 7.4) to a final concentration of 1.5-3 μg/μl (specific concentrations below). About 1 μl of DNA solution containing 0.1% fast green was injected into the lateral ventricle of E15.5±0.5 fetuses with a glass pipette. After injection, PBS soaked tweezer-type electrodes (model 520, BTX) were positioned on heads of the fetuses across the uterine wall and 6 square-pulses (42V, 50 ms duration, 950 ms intervals) were applied using a pulse generator (ECM830, BTX), Mice were prescreened for successful electroporation on a fluorescence enabled stereo microscope (SZX16, Olympus) prior to recruitment for EEG monitoring. To generate epilepsy-associated FCM, a DNA solution composed of pCAG-RhebS16H (Rheb^CA, 2 μg/μl) and pCAG-tdTomato (1 μg/μl) was injected in half of all fetuses while pCAG-GFP (3 μg/μl) containing solution was injected in the remaining littermates as controls. To silence FCM neurons, pCAG-Kir2.1-T2A-tdTomato (2 μg/μl)+pCAG-Rheb^CA (2 μg/μl) was injected in half of the fetuses while the remaining half received pCAG-Rheb^CA (2 μg/μl)+pCAG-GFP (2 μg/μl) as controls.
1-5-week-old mice were used for acute slices. Tissue was dissected and sliced in ice cold artificial cerebral spinal fluid (aCSF)oxygenated with 95% O2/5% CO2. The aCSF contained (all in mM): 124 NaCl, 3 KCl, 1.25 NaH2PO4, 1 MgSO4, 26 NaHCO3, 10 Dextrose, 2 CaCl2, 0.4 ascorbate, 4 Na-Lactate, 2 Na-Pyruvate (290±5 mOsm/kg, pH 7.2). Coronal sections (350 μm) were prepared using a vibratome (Vibratome 1000). Sections were incubated in aCSF at 32° C. for 45 minutes before returning to room temperature (25° C.) where they were kept for 8 to 10 hours during experimentation. Fluorescent neurons in the mPFC were visualized using epifluorescence on an Olympus BX51WI microscope with a 40× water immersion objective (Olympus, LUMPlanFL/IR). Whole-cell recordings were performed at 28° C. using pulled glass pipettes ([…]) filled with internal solution (in mM: 110 K-gluconate, 4 KCL, 10 HEPES, 10 di-tris-phosphocreatine, 4 Mg-ATP, 0.3 Na-GTP). Recordings were acquired with an amplifier (Axopatch 200B, Molecular Devices), The resting membrane potential was recorded within the first 10 seconds after achieving whole, cell configuration in current-clamp mode, while the cell is at rest without any holding current. The membrane conductance was calculated using the average membrane potential change from ten hyperpolarizing current injections of −500 pA in current-clamp mode when the cell is at rest. The action potential half width was calculated at half of the peak amplitude of a single action potential induced by current injection. The action potential firing threshold was defined as the membrane potential at which the first derivative of an action potential in current-clamp mode achieves 10% of its peak velocity (dV/dt). The action potential input-output curve was generated by injecting positive current in current-clamp mode from 0 to 2 nA at 100 pA increments for 500 msec.

[1] = Rheb^CA neurons with zatebradine

SMILES: C=C[C@@]1(C)CC(=O)[C@]2(O)[C@@]3(C)[C@@H](O)CCC(C)(C)[C@@H]3[C@H](O)[C@H](OC(C)=O)[C@@]2(C)O1 [forskolin]
- neurons generating repetitive action potentials (Rheb^CA neurons, forskolin bath-application): 4/9

SMILES: COc1ccc(CCN(C)CCCN2CCc3cc(OC)c(OC)cc3CC2=O)cc1OC [zatebradine]
- h current amplitude difference (ΔI) (500 ms-long voltage step, Rheb^CA vs Rheb^CA+zatebradine): significantly reduced
- residual inward current at −90 mV [1]: no residual inward current
- resting membrane potential (RMP) [1]: shifted RMP of cells to hyperpolarized values similar to those of control neurons
- hyperpolarization-induced voltage sag response (Rheb^CA neurons, −500 pA current step, zatebradine 40 μM): eliminated the sag response
- HCN currents in Rheb^CA neurons before seizure onset (slices from P8-P12 mice): zatebradine-sensitive
- hyperpolarization-activated inward currents (voltage-clamp steps from −40 to −130 mV, in the presence of zatebradine, not fully blocked): significantly reduced

Source: patent US12274756B2, “Methods of treating and diagnosing epilepsy” (YALE UNIVERSITY, priority 2019, dated 2025)
